Structures are written as SMILES.

Results on 25 molecules are retold here after patent US20230115274A1, “COMPOUNDS AND COMPOSITIONS FOR TREATING CONDITIONS ASSOCIATED WITH STING ACTIVITY” (IFM Due, Inc., priority 2019, published 2023).

The assay deals with T1, hSTING (Homo sapiens, UniProt Q86WV6, G230A/H232R/R293Q/R71H).
T1 construct: host or cells: THP1-Dual KO-IFNAR2 cells
The experiment in a line: STING reporter assay (luciferase) in THP1-Dual KO-IFNAR2 cells stimulated with 2′3′cGAMP. Format: cell-based. To be noted: 2′3′cGAMP 15 μM, 24 h. The procedure: STING pathway activation by the compounds described herein was measured using THP1-Dual™ cells (KO-IFNAR2).
THP1-Dual™ KO-IFNAR2 Cells (obtained from invivogen) were maintained in RPMI, 10% FCS, 5 ml P/S, 2 mM L-glut, 10 mM Hepes, and 1 mM sodium pyruvate. Compounds were spotted in empty 384 well tissue culture plates (Greiner 781182) by Echo for a final concentration of 0.0017-100 μM. Cells were plated into the TC plates at […], 2×10E6 cells/mL. For activation with STING ligand, 2′3′cGAMP (MW 718.38, obtained from Invivogen), was prepared in Optimem media.
The following solutions were prepared for each 1×384 plate: • Solution A: 2 mL Optimem with one of the following stimuli: • […] • Solution B: 2 mL Optimem with 60 μL Lipofectamine 2000->Incubate 5 min at RT
2 mL of solution A and 2 ml Solution B was mixed and incubated for 20 min at room temperature (RT). 20 uL of transfection solution (A+B) was added on top of the plated cells, with a final 2′3′cGAMP concentration of 15 μM. The plates were then centrifuged immediately at 340 g for 1 minute, after which they were incubated at 37° C., 5% CO2, >98% humidity for 24 h. Luciferase reporter activity was then measured. EC50 values were calculated by using standard methods known in the art.
Luciferase reporter assay: 10 μL of supernatant from the assay was transferred to white 384-plate with flat bottom and squared wells. One pouch of QUANTI-Luc™ Plus was dissolved in 25 mL of water. 100 μL of QLC Stabilizer per 25 mL of QUANTI-Luc™ Plus solution was added. 50 μL of QUANTI-Luc™ Plus/QLC solution per well was then added. Luminescence was measured on a Platereader (e.g., Spectramax I3X (Molecular Devices GF3637001)).
Luciferase reporter activity was then measured. EC50 values were calculated by using standard methods known in the art.
On the technique in general: A reporter such as luciferase makes a cellular process visible.

T1 sequence (Q86WV6 whole entry R71H/G230A/H232R/R293Q): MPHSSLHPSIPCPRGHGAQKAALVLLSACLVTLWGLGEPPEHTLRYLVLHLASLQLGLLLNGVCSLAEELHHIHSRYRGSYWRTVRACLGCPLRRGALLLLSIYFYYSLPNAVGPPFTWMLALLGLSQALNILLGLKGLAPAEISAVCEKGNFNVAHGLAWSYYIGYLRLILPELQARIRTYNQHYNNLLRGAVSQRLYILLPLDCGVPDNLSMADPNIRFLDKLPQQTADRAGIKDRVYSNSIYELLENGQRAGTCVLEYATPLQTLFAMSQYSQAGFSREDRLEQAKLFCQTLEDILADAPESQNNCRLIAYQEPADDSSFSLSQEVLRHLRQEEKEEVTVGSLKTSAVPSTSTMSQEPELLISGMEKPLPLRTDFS

Molecule `Cc1cc(NC(=O)Nc2c[nH]c3c(F)cncc23)cnc1N1CCC(F)(F)CC1` [Compound 172, 1-(6-(4,4-difluoropiperidin-1-yl)-5-methylpyridin-3-yl)-3-(7-fluoro-1H-pyrrolo[3,2-c]pyridin-3-yl)urea] came in with an EC50 (class symbols) of 1 to 5 µM.

Turning to `O=C(Nc1cc(Cl)c(C2CCC(F)(F)CC2)cn1)Nc1c[nH]c2ncc(F)cc12` [Compound 152, 1-(4-chloro-5-(4,4-difluorocyclohexyl)pyridin-2-yl)-3-(5-fluoro-1H-pyrrolo[2,3-b]pyridin-3-yl)urea], the concentration giving a half-maximal response (EC50) (class symbols) fell in the range of 0.04 to 0.2 µM.

For `O=C(Nc1cnc(N2CCC(F)(F)CC2)nc1)Nc1c[nH]c2ncc(F)cc12` [Compound 190, 1-(2-(4,4-difluoropiperidin-1-yl)pyrimidin-5-yl)-3-(5-fluoro-1H-pyrrolo[2,3-b]pyridin-3-yl)urea], the EC50 (class symbols) lay in the range of 0.2 to 1 µM.

In turn, `O=C(Nc1ccc(NC2CCC2)nc1)Nc1c[nH]c2ncc(F)cc12` [Compound 112, 1-(6-(cyclobutylamino)pyridin-3-yl)-3-(5-fluoro-1H-pyrrolo[2,3-b]pyridin-3-yl)urea] returned an EC50 (class symbols) of 1 to 5 µM.

In turn, `CNC1CC(n2cc(NC(=O)Nc3ccc(C4CCC(F)(F)CC4)nc3)c3cc(F)cnc32)C1` (stereo not shown) [Compound 124, 1-(6-(4,4-difluorocyclohexyl)pyridin-3-yl)-3-(5-fluoro-1-(3-(methylamino)cyclobutyl)-1H-pyrrolo[2,3-b]pyridin-3-yl)urea] yielded an EC50 (numeric bounds) greater than 30 µM.

With `COc1cc(NC(=O)Nc2c[nH]c3ncc(F)cc23)cnc1N1CCC(F)(F)CC1` [Compound 165, 1-(6-(4,4-difluoropiperidin-1-yl)-5-methoxypyridin-3-yl)-3-(5-fluoro-1H-pyrrolo[2,3-b]pyridin-3-yl)urea], for the setting “class symbols”, the EC50 is 0.2 to 1 µM.

In turn, `Cc1cc(NC(=O)Nc2c[nH]c3ncc(Cl)cc23)cnc1C1CCC(F)(F)CC1` [Compound 137, 1-(5-chloro-1H-pyrrolo[2,3-b]pyridin-3-yl)-3-(6-(4,4-difluorocyclohexyl)-5-methylpyridin-3-yl)urea] gave an EC50 (class symbols) of 1 to 5 µM.

`O=C(Nc1cc(Cl)c(N2CCC(F)(F)CC2)cn1)Nc1c[nH]c2ncc(F)cc12` [Compound 186, 1-(4-chloro-5-(4,4-difluoropiperidin-1-yl)pyridin-2-yl)-3-(5-fluoro-1H-pyrrolo[2,3-b]pyridin-3-yl)urea] registered an EC50 (class symbols) of 0.2 to 1 µM.

`COc1ccc2[nH]cc(NC(=O)Nc3cnc(N4CCC(F)(F)CC4)c(Cl)c3)c2n1` [Compound 141, 1-(5-chloro-6-(4,4-difluoropiperidin-1-yl)pyridin-3-yl)-3-(5-methoxy-1H-pyrrolo[3,2-b]pyridin-3-yl)urea] showed an EC50 (class symbols) of 0.2 to 1 µM.

With `O=C(Nc1ccc(C2CCC(F)(F)CC2)nc1)Nc1c[nH]c2ncc(F)cc12` [Compound 116, 1-(6-(4,4-difluorocyclohexyl)pyridin-3-yl)-3-(5-fluoro-1H-pyrrolo[2,3-b]pyridin-3-yl)urea], the EC50 (class symbols) fell in the range of 0.2 to 1 µM.

Where the note is “numeric bounds”, `CS(=O)(=O)n1cc(NC(=O)Nc2ccc(C3CCC(F)(F)CC3)nc2)c2cc(F)cnc21` [Compound 197, 1-(6-(4,4-difluorocyclohexyl)pyridin-3-yl)-3-(5-fluoro-1-(methylsulfonyl)-1H-pyrrolo[2,3-b]pyridin-3-yl)urea] showed an EC50 greater than 30 µM.

For the molecule `O=C(Nc1ccc(C2CCC(F)(F)CC2)nc1)Nc1c[nH]c2ncc(F)c(Br)c12` [Compound 182, 1-(4-bromo-5-fluoro-1H-pyrrolo[2,3-b]pyridin-3-yl)-3-(6-(4,4-difluorocyclohexyl)pyridin-3-yl)urea], under “class symbols”, the EC50 was 5 to 100 µM.

In turn, `O=C(Nc1ccc(C2CCC(F)(F)CC2)nc1)Nc1c[nH]c2ccc(OCCC(F)(F)F)nc12` [Compound 204, 1-(6-(4,4-difluorocyclohexyl)pyridin-3-yl)-3-(5-(3,3,3-trifluoropropoxy)-1H-pyrrolo[3,2-b]pyridin-3-yl)urea] registered a concentration giving a half-maximal response (EC50) (class symbols) of 1 to 5 µM.

`COc1cnc2[nH]cc(NC(=O)Nc3cnc(N4CCC(F)(F)CC4)c(Cl)c3)c2c1` [Compound 181, 1-(5-chloro-6-(4,4-difluoropiperidin-1-yl)pyridin-3-yl)-3-(5-methoxy-1H-pyrrolo[2,3-b]pyridin-3-yl)urea] gave an EC50 (class symbols) of 0.2 to 1 µM.

`COc1cnc2[nH]cc(NC(=O)Nc3cnc(N4CCC(F)(F)CC4)c(F)c3)c2c1` [Compound 184, 1-(6-(4,4-difluoropiperidin-1-yl)-5-fluoropyridin-3-yl)-3-(5-methoxy-1H-pyrrolo[2,3-b]pyridin-3-yl)urea] showed an EC50 (class symbols) of 0.2 to 1 µM.

For `O=C(Nc1cnc(C2CCC(F)(F)CC2)c(Cl)c1)Nc1c[nH]c2cccnc12` [Compound 142, 1-(5-chloro-6-(4,4-difluorocyclohexyl)pyridin-3-yl)-3-(1H-pyrrolo[3,2-b]pyridin-3-yl)urea], under “class symbols”, the EC50 lay within 0.2 to 1 µM.

As for `N#Cc1cc(NC(=O)Nc2c[nH]c3cccnc23)ccc1C1CCC(F)(F)CC1` [Compound 148, 1-(3-cyano-4-(4,4-difluorocyclohexyl)phenyl)-3-(1H-pyrrolo[3,2-b]pyridin-3-yl)urea], the EC50 (class symbols) is 0.2 to 1 µM.

Turning to `O=C(Nc1cnc(Cl)c(C2CCC(F)(F)CC2)c1)Nc1c[nH]c2cccnc12` [Compound 214, 1-(6-chloro-5-(4,4-difluorocyclohexyl)pyridin-3-yl)-3-(1H-pyrrolo[3,2-b]pyridin-3-yl)urea], the EC50 (class symbols) fell in the range of 5 to 100 µM.

For the setting “class symbols”, `O=C(Nc1cnc(C2CCN(CC(F)(F)F)CC2)c(Cl)c1)Nc1c[nH]c2cccnc12` [Compound 222, 1-(5-chloro-6-(1-(2,2,2-trifluoroethyl)piperidin-4-yl)pyridin-3-yl)-3-(1H-pyrrolo[3,2-b]pyridin-3-yl)urea] came in with an EC50 of 0.2 to 1 µM.

`Cc1cc(NC(=O)Nc2c[nH]c3ncc(F)cc23)cnc1N1CC2(COC2)C1` [Compound 159, 1-(5-fluoro-1H-pyrrolo[2,3-b]pyridin-3-yl)-3-(5-methyl-6-(2-oxa-6-azaspiro[3.3]heptan-6-yl)pyridin-3-yl)urea] yielded a concentration for a half-maximal effect (EC50) (numeric bounds) greater than 30 µM.

With `O=C(Nc1cnc(C2CCN(CC(F)(F)F)C2)c(Cl)c1)Nc1c[nH]c2cccnc12` (stereo not shown) [Compound 216, 1-(5-chloro-6-(1-(2,2,2-trifluoroethyl)pyrrolidin-3-yl)pyridin-3-yl)-3-(1H-pyrrolo[3,2-b]pyridin-3-yl)urea], the EC50 (class symbols) was in the range of 1 to 5 µM.

The molecule `O=C(Nc1ccc(C2CCC(O)CC2)nc1)Nc1c[nH]c2ncc(F)cc12` (stereo not shown) [Compound 114, 1-(5-fluoro-1H-pyrrolo[2,3-b]pyridin-3-yl)-3-(6-(4-hydroxycyclohexyl)pyridin-3-yl)urea] gave an EC50 (numeric bounds) greater than 100 µM.

In turn, `CC(C)(C)OC(=O)N1CCCC(n2cc(NC(=O)Nc3ccc(C4CCC(F)(F)CC4)nc3)c3cc(F)cnc32)C1` (stereo not shown) [Compound 102, tert-butyl 3-(3-(3-(6-(4,4-difluorocyclohexyl)pyridin-3-yl)ureido)-5-fluoro-1H-pyrrolo[2,3-b]pyridin-1-yl)piperidine-1-carboxylate] came in with an EC50 (class symbols) of 5 to 100 µM.

Molecule `O=C(Nc1ccc(C2CCC(F)(F)CC2)nc1)Nc1cn(C2CCCNC2)c2ncc(F)cc12` (stereo not shown) [Compound 123, 1-(6-(4,4-difluorocyclohexyl)pyridin-3-yl)-3-(5-fluoro-1-(piperidin-3-yl)-1H-pyrrolo[2,3-b]pyridin-3-yl)urea] showed an EC50 (numeric bounds) greater than 30 µM.

In the case of `O=C(Nc1cc(Cl)c(N2CCC(F)(F)CC2)cn1)Nc1c[nH]c2cccnc12` [Compound 235, 1-(4-chloro-5-(4,4-difluoropiperidin-1-yl)pyridin-2-yl)-3-(1H-pyrrolo[3,2-b]pyridin-3-yl)urea], the concentration giving a half-maximal response (EC50) (class symbols) lay in the range of 1 to 5 µM.

The EC50 is the concentration giving half of the maximal effect. Low readings indicate an effect from little substance, high ones a need for much substance.
